Results as given in PubChem BioAssay (NCI).
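Protocol summary: plate cells (96-well), add compound at 5 concentrations, incubate 48 h, interpolate endpoints linearly. The concentration for full growth arrest is given as TGI.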

How the values were obtained:
Assay in all cases: inhibition of tumour cell growth, NCI panel, 48 h
SK-MEL-2 melanoma = system: SK-MEL-2 melanoma
COLO 205 colon = system: COLO 205 colon
ACHN renal = system: ACHN renal
UO-31 renal = system: UO-31 renal
U251 CNS = system: U251 CNS
K-562 leukemia = system: K-562 leukemia
UACC-257 melanoma = system: UACC-257 melanoma
SNB-19 CNS = system: SNB-19 CNS
CAKI-1 renal = system: CAKI-1 renal
SF-295 CNS = system: SF-295 CNS
PC-3 prostate = system: PC-3 prostate
EKVX NSCLC = system: EKVX NSCLC
SK-MEL-5 melanoma = system: SK-MEL-5 melanoma
DU-145 prostate = system: DU-145 prostate
SF-539 CNS = system: SF-539 CNS
BT-549 breast = system: BT-549 breast
MCF7 breast = system: MCF7 breast
NCI-H460 lung = system: NCI-H460 lung
T-47D breast = system: T-47D breast
SNB-75 CNS = system: SNB-75 CNS
A498 renal = system: A498 renal
OVCAR-4 ovarian = system: OVCAR-4 ovarian
SK-OV-3 ovarian = system: SK-OV-3 ovarian
NCI-H226 lung = system: NCI-H226 lung
HOP-62 NSCLC = system: HOP-62 NSCLC
OVCAR-8 ovarian = system: OVCAR-8 ovarian
SR leukemia = system: SR leukemia
OVCAR-5 ovarian = system: OVCAR-5 ovarian
SN12C renal = system: SN12C renal
MOLT-4 leukemia = system: MOLT-4 leukemia
LOX IMVI melanoma = system: LOX IMVI melanoma
SF-268 CNS = system: SF-268 CNS
HS 578T breast = system: HS 578T breast
HL-60(TB) leukemia = system: HL-60(TB) leukemia
OVCAR-3 ovarian = system: OVCAR-3 ovarian
NCI/ADR-RES ovarian = system: NCI/ADR-RES ovarian
IGROV1 ovarian = system: IGROV1 ovarian
RXF 393 renal = system: RXF 393 renal
RPMI-8226 leukemia = system: RPMI-8226 leukemia
NCI-H23 lung = system: NCI-H23 lung
MDA-MB-435 = system: MDA-MB-435
M14 melanoma = system: M14 melanoma
UACC-62 melanoma = system: UACC-62 melanoma
HOP-92 NSCLC = system: HOP-92 NSCLC
MDA-N = system: MDA-N
A549 NSCLC = system: A549 NSCLC
TK-10 renal = system: TK-10 renal
786-0 renal = system: 786-0 renal
KM12 colon = system: KM12 colon
SW-620 colon = system: SW-620 colon
CCRF-CEM leukemia = system: CCRF-CEM leukemia
HT29 colon = system: HT29 colon
MDA-MB-231 breast = system: MDA-MB-231 breast
HCT-116 colon = system: HCT-116 colon
SK-MEL-28 melanoma = system: SK-MEL-28 melanoma
HCT-15 colon = system: HCT-15 colon
NCI-H522 lung = system: NCI-H522 lung
HCC-2998 colon = system: HCC-2998 colon
MALME-3M melanoma = system: MALME-3M melanoma

Measured: TGI

N=C(N)SCCc1ccncc1
> 100 µM: SK-MEL-2 melanoma | COLO 205 colon | ACHN renal | UO-31 renal | U251 CNS | K-562 leukemia | UACC-257 melanoma | SNB-19 CNS | CAKI-1 renal | SF-295 CNS | PC-3 prostate | EKVX NSCLC | SK-MEL-5 melanoma | DU-145 prostate | SF-539 CNS | BT-549 breast | MCF7 breast | NCI-H460 lung | T-47D breast | SNB-75 CNS | A498 renal | OVCAR-4 ovarian | SK-OV-3 ovarian | NCI-H226 lung | HOP-62 NSCLC | OVCAR-8 ovarian | SR leukemia | OVCAR-5 ovarian | SN12C renal | MOLT-4 leukemia | LOX IMVI melanoma | SF-268 CNS | HS 578T breast | HL-60(TB) leukemia | OVCAR-3 ovarian | NCI/ADR-RES ovarian | IGROV1 ovarian | RXF 393 renal | RPMI-8226 leukemia | NCI-H23 lung | MDA-MB-435 | M14 melanoma | UACC-62 melanoma | HOP-92 NSCLC | MDA-N | A549 NSCLC | TK-10 renal | 786-0 renal | KM12 colon | SW-620 colon | CCRF-CEM leukemia | HT29 colon | MDA-MB-231 breast | HCT-116 colon | SK-MEL-28 melanoma | HCT-15 colon

COC(=O)C1CC2C=CC1N(C(=O)OCc1ccccc1)C2 (centres undefined)
43.5 µM: NCI-H522 lung
> 100 µM: SK-MEL-2 melanoma | COLO 205 colon | ACHN renal | UO-31 renal | U251 CNS | K-562 leukemia | UACC-257 melanoma | SNB-19 CNS | CAKI-1 renal | SF-295 CNS | PC-3 prostate | EKVX NSCLC | SK-MEL-5 melanoma | DU-145 prostate | SF-539 CNS | BT-549 breast | MCF7 breast | NCI-H460 lung | T-47D breast | SNB-75 CNS | A498 renal | OVCAR-4 ovarian | SK-OV-3 ovarian | NCI-H226 lung | HOP-62 NSCLC | OVCAR-8 ovarian | SR leukemia | OVCAR-5 ovarian | SN12C renal | MOLT-4 leukemia | LOX IMVI melanoma | SF-268 CNS | HS 578T breast | HL-60(TB) leukemia | OVCAR-3 ovarian | NCI/ADR-RES ovarian | IGROV1 ovarian | RXF 393 renal | RPMI-8226 leukemia | NCI-H23 lung | MDA-MB-435 | M14 melanoma | UACC-62 melanoma | MDA-N | A549 NSCLC | TK-10 renal | 786-0 renal | KM12 colon | SW-620 colon | CCRF-CEM leukemia | HT29 colon | MDA-MB-231 breast | HCC-2998 colon | HCT-116 colon | MALME-3M melanoma | SK-MEL-28 melanoma | HCT-15 colon

CC1CCC2(NC1)OC1CC3C4CCC5CC(OC6OC(CO)C(OC7OC(CO)C(O)C(OC8OCC(O)C(O)C8O)C7OC7OC(CO)C(O)C(O)C7O)C(O)C6O)CCC5(C)C4CCC3(C)C1C2C (centres undefined)
3.93 µM: NCI/ADR-RES ovarian
4.01 µM: RPMI-8226 leukemia
3.94 µM: SW-620 colon
2.78 µM: HCC-2998 colon
3.07 µM: U251 CNS
> 21.2 µM: K-562 leukemia
4 µM: COLO 205 colon
1.86 µM: IGROV1 ovarian
3.02 µM: M14 melanoma
3.1 µM: OVCAR-4 ovarian
3.56 µM: SK-MEL-5 melanoma | SNB-75 CNS
3.26 µM: HT29 colon
6.3 µM: MCF7 breast
3.46 µM: DU-145 prostate | SK-MEL-28 melanoma
2.65 µM: UACC-62 melanoma
3.12 µM: OVCAR-3 ovarian | NCI-H522 lung
4.82 µM: ACHN renal
2.83 µM: MALME-3M melanoma
4.64 µM: KM12 colon
> 100 µM: SR leukemia | LOX IMVI melanoma
5.97 µM: BT-549 breast
1.05 µM: PC-3 prostate
3.72 µM: NCI-H226 lung
4.65 µM: UACC-257 melanoma
4.99 µM: A549 NSCLC
3.03 µM: MDA-MB-435
> 22 µM: CCRF-CEM leukemia
3.32 µM: SN12C renal | SF-268 CNS
2.69 µM: UO-31 renal
2.32 µM: SF-295 CNS
6.98 µM: HCT-116 colon
3.75 µM: SK-MEL-2 melanoma | A498 renal
2.37 µM: EKVX NSCLC
4.16 µM: NCI-H460 lung
3.38 µM: SNB-19 CNS
1.02 µM: MDA-N
3.68 µM: HOP-62 NSCLC
5.07 µM: T-47D breast
3.85 µM: HS 578T breast
4.93 µM: HL-60(TB) leukemia
2.73 µM: OVCAR-5 ovarian
2.11 µM: CAKI-1 renal
3.4 µM: TK-10 renal | MDA-MB-231 breast
